According to patent US12577219B2, “Macrolide brefeldin a ester derivatives and use thereof” (OCEAN UNIVERSITY OF CHINA, priority 2019, dated 2026):
In brackets after ≈: the same amount, converted by molar mass. Blank lines part the entries; values can stand above or below the compound they belong to.

Tests used:
[1] = system: Kunming breed mice; experiment: Toxicity test after intraperitoneal administration to mice; assay type: in vivo; settings: ip.; for Organ abnormality at anatomy: anatomy on the 14 th day; for Mental condition of the animals after administration: high and low doses; for Deaths after administration: high and low doses (BFA effective amount conversion), 14 d
Protocol: Objective: Observation of toxic effects of compounds after intraperitoneally administration (ip.) to mice
1) Agents: Compounds disclosed herein were formulated to a suitable concentration.
2) Animals: Kunming breed mice, weight 18-22 g, male. Provided by Jinan Pengyue Laboratory Animal Breeding Co., Ltd. Animal license number: SCXK (Shandong 20140007)
Method: Kunming breed mice, were randomly grouped by weight, 6 mice per group, namely normal control group, BFA high and low dose groups (100 mg/kg and 50 mg/kg, respectively), and high and low dose groups of some compounds disclosed herein (BFA effective amount conversion). […] After 14 d of continuous administration, all the animals were weighed, and the animals were executed to observe whether there were any abnormalities in the organs.

[2] = system: Human cervical cancer Hela cells; experiment: Cell proliferation assay (CCK-8); assay type: cell-based; settings: 72 h
Text: (§1) CCK-8 method: The CCK-8 method is a highly sensitive, non-radioactive colorimetric assay for the determination of the number of viable cells in cell proliferation or cytotoxicity assays. The orange formazan dye produced by the bioreduction of CCK-8 by intracellular dehydrogenase is soluble in the cell culture medium, and the amount of formazan dye produced is proportional to the number of living cells. The kit used in this method is the tetrazolium salt-WST-8 (2-(2-methoxy-4-nitrophenyl)-3-(4-nitrophenyl)-5-(2,4-disulfophenyl)-2H-tetrazolium monosodium salt) developed by Dojindo Chemical Research Institute (Dojindo), which is capable of being reduced to a water-soluble formazan dye in the presence of the electronic carrier 1-Methoxy PMS.
(§2) Human cervical cancer Hela cells, pancreatic cancer PANC-1cells, esophageal cancer Eca-109 cells, human leukemia K562 cells, human lung cancer A549 cells, human liver cancer HepG2 cells, human gastric cancer MKN-45 cells, human breast cancer MCF7 cells were cultured in DMEM medium containing 10% FBS (fetal bovine serum), 100 U/mL penicillin and 100 μg/ml streptomycin. Hepatocellular carcinoma cells Bel-7402 were cultured in RPMI-1640 medium containing 10% FBS (fetal bovine serum), 100 U/ml penicillin and 100 μg/ml streptomycin. All cells were placed in a cell culture incubator at 37° C. with 5% CO2. Cells fluid was changed every 3-5 days, and after 80% cell fusion, trypsin digestion and passaging were performed to keep the cells in good logarithmic growth phase.
(§3) All the samples to be tested were dissolved in DMSO.
(§4) Cells in logarithmic growth phase were inoculated in 96-well plates with 5000 cells/well respectively, and after 24 h of incubation, samples were added (final concentrations as shown in the table), and biplicate wells were set up for each sample. The amount of solvent of DMSO was not higher than 2%. After 72 h, 10 μL of CCK-8 solution was added to each well and incubated for 1.5˜3 h at 37° C. The OD value at 450 nm was measured on an plate reader. Inhibition rate (%)=(1−[(OD450 dosed well−OD450 blank well)/(OD450 control well−OD450 blank well)])×100%
(§5) The fitted IC50 values were calculated using the log (inhibitor) vs. response—Variable slop analysis method in GraphPad Prism software.

[3] = system: human breast cancer MCF7 cells; experiment: Cell proliferation assay (CCK-8); assay type: cell-based; settings: MCF7, 72 h
Text: as §1, §2, §3, §4, §5

[4] = system: human gastric cancer MKN-45 cells; experiment: Cell proliferation assay (CCK-8); assay type: cell-based; settings: MKN-45, 72 h
Text: as §1, §2, §3, §4, §5

[5] = system: human leukemia K562 cells; experiment: Cell proliferation assay (CCK-8); assay type: cell-based; settings: K562, 72 h
Text: as §1, §2, §3, §4, §5

[6] = system: human liver cancer HepG2 cells; experiment: Cell proliferation assay (CCK-8); assay type: cell-based; settings: HepG2, 72 h
Text: as §1, §2, §3, §4, §5

[7] = system: human lung cancer A549 cells; experiment: Cell proliferation assay (CCK-8); assay type: cell-based; settings: A549, 72 h
Text: as §1, §2, §3, §4, §5

[8] = system: esophageal cancer Eca-109 cells; experiment: Cell proliferation assay (CCK-8); assay type: cell-based, human; settings: Eca-109, 72 h
Text: as §1, §2, §3, §4, §5

[9] = system: pancreatic cancer PANC-1cells; experiment: Cell proliferation assay (CCK-8); assay type: cell-based, human; settings: PANC-1, 72 h
Text: as §1, §2, §3, §4, §5

[10] = Solubility test (shaker 37° C., 24 h, HPLC); settings: 37 °C, thermodynamic from solid
Method: The term “solubility” refers to the mass of solute dissolved when a solid substance reaches saturation state in 100 g solvent at a certain temperature.
Methods: Excess BFA and the compounds disclosed herein were added to 10 mL of three solvents, methanol, acetone and 5% DMSO+95% H2O, respectively, and shaken on a shaker at 37° C. at 100 r/min for 24 h. After 24 h, the samples were centrifuged at 15,000 r/min for 15 min to remove the undissolved compounds. The supernatant was filtered using a 0.45 μm membrane filter. The supernatant was appropriately diluted with methanol and contents of the compounds were determined by HPLC method to calculate the solubility.

Structure (SMILES): C[C@H]1CCC/C=C/[C@@H]2C[C@H](OC(=O)/C=C/c3cccc(F)c3)C[C@H]2[C@H](O)/C=C/C(=O)O1 [Compound 1a, 7-O-(3-fluorocinnamic acid)acyl BFA]
Organ abnormality at anatomy [1]: no significant abnormality in all organs
Mental condition of the animals after administration [1]: good mental condition
Deaths after administration [1]: no deaths

Structure (SMILES): C[C@H]1CCC/C=C/[C@@H]2C[C@H](OC(=O)/C=C/c3cccnc3)C[C@H]2[C@H](O)/C=C/C(=O)O1 [Compound 16a, 7-O-(3-(pyridine-3-yl)acrylic acid)acyl BFA]
Organ abnormality at anatomy [1]: no significant abnormality in all organs
Mental condition of the animals after administration [1]: good mental condition
Deaths after administration [1]: no deaths

Structure (SMILES): C[C@H]1CCC/C=C/[C@@H]2C[C@H](OC(=O)/C=C/c3ccc(N(C)C)cc3)C[C@H]2[C@H](O)/C=C/C(=O)O1 [Compound 10a, 7-O-(4-dimethylaminocinnamic acid)acyl BFA]
Organ abnormality at anatomy [1]: no significant abnormality in all organs
Mental condition of the animals after administration [1]: good mental condition
Deaths after administration [1]: no deaths

Structure (SMILES): C[C@H]1CCC/C=C/[C@@H]2C[C@H](O)C[C@H]2[C@H](OC(=O)/C=C/c2ccc3c(c2)OCO3)/C=C/C(=O)O1 [Compound 9b, 4-O-((E)-3-(benzo[d][1,3]dioxa-5-yl)acrylic acid)acyl BFA]
IC50 [2]: 1000 to 10000 nM
IC50 [3]: 100 to 1000 nM
IC50 [4]: 100 to 1000 nM
IC50 [5]: 100 to 1000 nM
IC50 [6]: 1000 to 10000 nM
IC50 [7]: 100 to 1000 nM
IC50 [8]: 1000 to 10000 nM
IC50 [9]: 100 to 1000 nM

Structure (SMILES): C[C@H]1CCC/C=C/[C@@H]2C[C@H](OC(=O)/C=C/c3ccc(N(C)C)cc3)C[C@H]2[C@H](OC(=O)/C=C/c2ccc(N(C)C)cc2)/C=C/C(=O)O1 [Compound 10c, 4,7-O-bis(4-dimethylaminocinnamic acid)acyl BFA]
Organ abnormality at anatomy [1]: no significant abnormality in all organs
Mental condition of the animals after administration [1]: good mental condition
Deaths after administration [1]: no deaths

Structure (SMILES): C[C@H]1CCC/C=C/[C@@H]2C[C@H](OC(=O)/C=C/c3cccc(F)c3)C[C@H]2[C@H](OC(=O)/C=C/c2cccc(F)c2)/C=C/C(=O)O1 [Compound 1c, 4,7-O-bis(3-fluorocinnamic acid)acyl BFA]
Organ abnormality at anatomy [1]: no significant abnormality in all organs
Mental condition of the animals after administration [1]: good mental condition
Deaths after administration [1]: no deaths

IC50 ([2]; Homo sapiens): 1000 to 10000 nM
IC50 ([3]; Homo sapiens): 1000 to 10000 nM
IC50 ([4]; Homo sapiens): 1000 to 10000 nM
IC50 ([5]; Homo sapiens): 1000 to 10000 nM
IC50 ([6]; Homo sapiens): 1000 to 10000 nM
IC50 ([7]; Homo sapiens): 1000 to 10000 nM
IC50 ([8]; Homo sapiens): 1000 to 10000 nM
IC50 ([9]; Homo sapiens): 1000 to 10000 nM
solubility at 24 h ([10]; 5% DMSO + 95% H2O, aqueous with cosolvent or surfactant or cyclodextrin): 100 ± 230 µg/mL
solubility at 24 h ([10]; acetone, organic solvent or mixture): 5360 ± 3130 µg/mL (≈ 9.91 mM)
solubility at 24 h ([10]; methanol, organic solvent or mixture): 5300 ± 2510 µg/mL (≈ 9.8 mM)
Structure (SMILES): C[C@H]1CCC/C=C/[C@@H]2C[C@H](OC(=O)/C=C/c3ccccc3)C[C@H]2[C@H](OC(=O)/C=C/c2ccccc2)/C=C/C(=O)O1 [Compound C]

Structure (SMILES): C[C@H]1CCC/C=C/[C@@H]2C[C@H](OC(=O)/C=C/c3cccnc3)C[C@H]2[C@H](OC(=O)/C=C/c2cccnc2)/C=C/C(=O)O1 [Compound 16c]
Organ abnormality at anatomy [1]: no significant abnormality in all organs
Mental condition of the animals after administration [1]: good mental condition
Deaths after administration [1]: no deaths
